Laboratory results taken from PubChem BioAssay AID248 (DTP/NCI, 2004).
Where “and” joins values, the source holds several entries; their conditions need not be identical. Identical values can stand only once. Toxic doses and inconclusive results are not listed. Cut-off read from the data, not from the text of the source: active = T/C of 150% or more; inactive = T/C below 125%.

Test system: L1210 leukemia ip in BDF1 mice, survival T/C
Assay: NCI In Vivo Anticancer Drug Screen. Data for tumor model L1210 Leukemia (intraperitoneal) in B6D2F1 (BDF1) mice
Settings: higher = longer survival
Outline: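 Ratio derived from survival: compound-dosed mice over vehicle-dosed mice, all bearing a transplantable tumor.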

Measured: T/C

CCCCN1C(=O)C2CC=C3C=CN4C(C3C2C1=O)C1C(=O)N(CCCC)C(=O)C1C41CC(=O)N(CCCC)C1=O (stereo unspecified)
inactive: endpoint: mean survival time, dose: 12.5 mg/kg/injection, schedule: Q01DX009 (ip), vehicle: Klucel (hydroxypropylcellulose) (HPC) 101 % of control | endpoint: mean survival time, dose: 25.0 mg/kg/injection, schedule: Q01DX009 (ip), vehicle: Klucel (hydroxypropylcellulose) (HPC) 104 % of control | endpoint: mean survival time, dose: 50.0 mg/kg/injection, schedule: Q01DX009 (ip), vehicle: Klucel (hydroxypropylcellulose) (HPC) 91 % of control | endpoint: mean survival time, dose: 100.0 mg/kg/injection, schedule: Q01DX009 (ip), vehicle: Klucel (hydroxypropylcellulose) (HPC) 86 % of control | endpoint: mean survival time, dose: 100.0 mg/kg/injection, schedule: Q04DX003 (ip), vehicle: Klucel (hydroxypropylcellulose) (HPC) 89 % of control | endpoint: mean survival time, dose: 200.0 mg/kg/injection, schedule: Q01DX009 (ip), vehicle: Klucel (hydroxypropylcellulose) (HPC) 91 % of control | endpoint: mean survival time, dose: 200.0 mg/kg/injection, schedule: Q04DX003 (ip), vehicle: Klucel (hydroxypropylcellulose) (HPC) 90 % of control | endpoint: mean survival time, dose: 400.0 mg/kg/injection, schedule: Q04DX003 (ip), vehicle: Klucel (hydroxypropylcellulose) (HPC) 92 % of control

CSc1ncnc2nc[nH]c12
inactive: endpoint: mean survival time, dose: 1.5 mg/kg/injection, schedule: Q01DX Z (ip), vehicle: saline 95 % of control | endpoint: mean survival time, dose: 3.0 mg/kg/injection, schedule: Q01DX Z (ip), vehicle: saline 95 % of control | endpoint: mean survival time, dose: 6.0 mg/kg/injection, schedule: Q01DX Z (ip), vehicle: saline 103 % of control | endpoint: mean survival time, dose: 12.0 mg/kg/injection, schedule: Q01DX Z (ip), vehicle: saline 95 % of control | endpoint: mean survival time, dose: 12.5 mg/kg/injection, schedule: Q#A X Z (ip), vehicle: saline 108 % of control | endpoint: mean survival time, dose: 25.0 mg/kg/injection, schedule: Q01DX006 (iv), vehicle: saline 103 % of control | endpoint: mean survival time, dose: 25.0 mg/kg/injection, schedule: Q01DX009 (ip), vehicle: saline 97 % of control | endpoint: mean survival time, dose: 25.0 mg/kg/injection, schedule: Q01DX010 (ip), vehicle: saline 92 % of control | endpoint: mean survival time, dose: 25.0 mg/kg/injection, schedule: Q01DX Z (im), vehicle: methylcellulose (MC) 94 % of control | endpoint: mean survival time, dose: 25.0 mg/kg/injection, schedule: Q01DX Z (ip), vehicle: saline 101 % of control | endpoint: mean survival time, dose: 25.0 mg/kg/injection, schedule: Q01DX Z (sc), vehicle: methylcellulose (MC) 117 % of control | endpoint: mean survival time, dose: 25.0 mg/kg/injection, schedule: Q#A X Z (ip), vehicle: saline 103 % of control | endpoint: mean survival time, dose: 30.0 mg/kg/injection, schedule: Q01DX015 (ip), vehicle: carboxymethylcellulose (CMC) 114 % of control | endpoint: mean survival time, dose: 45.0 mg/kg/injection, schedule: Q01DX015 (ip), vehicle: carboxymethylcellulose (CMC) 104 % of control | endpoint: mean survival time, dose: 50.0 mg/kg/injection, schedule: Q01DX006 (iv), vehicle: saline 100 % of control | endpoint: mean survival time, dose: 50.0 mg/kg/injection, schedule: Q01DX009 (ip), vehicle: saline 102 % of control and 104 % of control | endpoint: mean survival time, dose: 50.0 mg/kg/injection, schedule: Q01DX010 (ip), vehicle: saline 89 % of control | endpoint: mean survival time, dose: 50.0 mg/kg/injection, schedule: Q01DX Z (im), vehicle: methylcellulose (MC) 107 % of control | endpoint: mean survival time, dose: 50.0 mg/kg/injection, schedule: Q01DX Z (ip), vehicle: saline 105 % of control | endpoint: mean survival time, dose: 50.0 mg/kg/injection, schedule: Q01DX Z (sc), vehicle: methylcellulose (MC) 96 % of control | endpoint: mean survival time, dose: 50.0 mg/kg/injection, schedule: Q#A X Z (ip), vehicle: saline 112 % of control | endpoint: mean survival time, dose: 60.0 mg/kg/injection, schedule: Q01DX015 (ip), vehicle: carboxymethylcellulose (CMC) 114 % of control | endpoint: mean survival time, dose: 75.0 mg/kg/injection, schedule: Q01DX015 (ip), vehicle: carboxymethylcellulose (CMC) 108 % of control | endpoint: mean survival time, dose: 75.0 mg/kg/injection, schedule: Q03DX Z (ip), vehicle: saline 100 % of control | endpoint: mean survival time, dose: 90.0 mg/kg/injection, schedule: Q01DX015 (ip), vehicle: carboxymethylcellulose (CMC) 109 % of control | endpoint: mean survival time, dose: 100.0 mg/kg/injection, schedule: Q01DX006 (iv), vehicle: saline 108 % of control | endpoint: mean survival time, dose: 100.0 mg/kg/injection, schedule: Q01DX009 (ip), vehicle: saline 102 % of control and 103 % of control | endpoint: mean survival time, dose: 100.0 mg/kg/injection, schedule: Q01DX010 (ip), vehicle: saline 95 % of control and 87 % of control | endpoint: mean survival time, dose: 100.0 mg/kg/injection, schedule: Q01DX Z (im), vehicle: methylcellulose (MC) 89 % of control | endpoint: mean survival time, dose: 100.0 mg/kg/injection, schedule: Q01DX Z (ip), vehicle: saline 111 % of control | endpoint: mean survival time, dose: 100.0 mg/kg/injection, schedule: Q01DX Z (sc), vehicle: methylcellulose (MC) 113 % of control | endpoint: mean survival time, dose: 120.0 mg/kg/injection, schedule: Q01DX001 (ip), vehicle: carboxymethylcellulose (CMC) 95 % of control and 100 % of control | endpoint: mean survival time, dose: 125.0 mg/kg/injection, schedule: Q01DX001 (ip), vehicle: methylcellulose (MC) 105 % of control and 108 % of control | endpoint: mean survival time, dose: 150.0 mg/kg/injection, schedule: Q03DX Z (ip), vehicle: saline 101 % of control | endpoint: mean survival time, dose: 180.0 mg/kg/injection, schedule: Q01DX001 (ip), vehicle: carboxymethylcellulose (CMC) 102 % of control and 106 % of control | endpoint: mean survival time, dose: 200.0 mg/kg/injection, schedule: Q01DX006 (iv), vehicle: saline 97 % of control | endpoint: mean survival time, dose: 200.0 mg/kg/injection, schedule: Q01DX009 (ip), vehicle: saline 97 % of control and 100 % of control | endpoint: mean survival time, dose: 200.0 mg/kg/injection, schedule: Q01DX010 (ip), vehicle: saline 105 % of control | endpoint: mean survival time, dose: 200.0 mg/kg/injection, schedule: Q01DX Z (im), vehicle: methylcellulose (MC) 102 % of control | endpoint: mean survival time, dose: 200.0 mg/kg/injection, schedule: Q01DX Z (ip), vehicle: saline 105 % of control | endpoint: mean survival time, dose: 200.0 mg/kg/injection, schedule: Q01DX Z (sc), vehicle: methylcellulose (MC) 112 % of control | endpoint: mean survival time, dose: 250.0 mg/kg/injection, schedule: Q01DX001 (ip), vehicle: methylcellulose (MC) 106 % of control and 108 % of control | endpoint: mean survival time, dose: 270.0 mg/kg/injection, schedule: Q01DX001 (ip), vehicle: carboxymethylcellulose (CMC) 103 % of control and 117 % of control | endpoint: mean survival time, dose: 300.0 mg/kg/injection, schedule: Q03DX Z (ip), vehicle: saline 100 % of control | endpoint: mean survival time, dose: 500.0 mg/kg/injection, schedule: Q01DX001 (ip), vehicle: methylcellulose (MC) 116 % of control | endpoint: mean survival time, dose: 1000.0 mg/kg/injection, schedule: Q01DX001 (ip), vehicle: methylcellulose (MC) 112 % of control | endpoint: median survival time, dose: 25.0 mg/kg/injection, schedule: Q01DX009 (ip), vehicle: saline 100 % of control | endpoint: median survival time, dose: 50.0 mg/kg/injection, schedule: Q01DX009 (ip), vehicle: saline 95 % of control and 106 % of control | endpoint: median survival time, dose: 100.0 mg/kg/injection, schedule: Q01DX009 (ip), vehicle: saline 100 % of control and 106 % of control | endpoint: median survival time, dose: 200.0 mg/kg/injection, schedule: Q01DX009 (ip), vehicle: saline 100 % of control and 115 % of control

O=S(=O)(Nc1ccccc1)c1ccccc1C(O)(c1ccccc1)c1ccccc1
inactive: endpoint: mean survival time, dose: 100.0 mg/kg/injection, schedule: Q01DX001 (ip), vehicle: carboxymethylcellulose (CMC) 106 % of control | endpoint: mean survival time, dose: 200.0 mg/kg/injection, schedule: Q01DX001 (ip), vehicle: carboxymethylcellulose (CMC) 90 % of control | endpoint: mean survival time, dose: 400.0 mg/kg/injection, schedule: Q01DX001 (ip), vehicle: carboxymethylcellulose (CMC) 93 % of control

C#CCOCC(O)CCl (stereo unspecified)
inactive: endpoint: mean survival time, dose: 75.0 mg/kg/injection, schedule: Q01DX001 (ip), vehicle: acetone 101 % of control | endpoint: mean survival time, dose: 150.0 mg/kg/injection, schedule: Q01DX001 (ip), vehicle: acetone 92 % of control | endpoint: mean survival time, dose: 300.0 mg/kg/injection, schedule: Q01DX001 (ip), vehicle: acetone 89 % of control

CC(=O)OC1CCC2(C)C(C1)C(OC(C)=O)CC1C3CCC(c4cccc(=O)o4)C3(C)CCC12 (stereo unspecified)
inactive: endpoint: mean survival time, dose: 100.0 mg/kg/injection, schedule: Q01DX001 (sc), vehicle: steriod suspending solution 101 % of control | endpoint: mean survival time, dose: 200.0 mg/kg/injection, schedule: Q01DX001 (sc), vehicle: steriod suspending solution 102 % of control | endpoint: mean survival time, dose: 400.0 mg/kg/injection, schedule: Q01DX001 (sc), vehicle: steriod suspending solution 112 % of control

CCC(NCC(C)C)NCC(C)C
inactive: endpoint: mean survival time, dose: 12.5 mg/kg/injection, schedule: Q04DX003 (ip), vehicle: saline 91 % of control | endpoint: mean survival time, dose: 25.0 mg/kg/injection, schedule: Q04DX003 (ip), vehicle: saline 105 % of control | endpoint: mean survival time, dose: 50.0 mg/kg/injection, schedule: Q04DX003 (ip), vehicle: saline 86 % of control

S=C(Nc1ccccc1)c1ccccc1
inactive: endpoint: mean survival time, dose: 100.0 mg/kg/injection, schedule: Q04DX002 (ip), vehicle: Klucel (hydroxypropylcellulose) (HPC) 89 % of control | endpoint: mean survival time, dose: 200.0 mg/kg/injection, schedule: Q04DX002 (ip), vehicle: Klucel (hydroxypropylcellulose) (HPC) 92 % of control | endpoint: mean survival time, dose: 400.0 mg/kg/injection, schedule: Q04DX002 (ip), vehicle: Klucel (hydroxypropylcellulose) (HPC) 105 % of control

Ic1ccc(-n2cccc2)cc1
inactive: endpoint: mean survival time, dose: 100.0 mg/kg/injection, schedule: Q01DX001 (ip), vehicle: steriod suspending solution 95 % of control | endpoint: mean survival time, dose: 200.0 mg/kg/injection, schedule: Q01DX001 (ip), vehicle: steriod suspending solution 101 % of control | endpoint: mean survival time, dose: 400.0 mg/kg/injection, schedule: Q01DX001 (ip), vehicle: steriod suspending solution 92 % of control
